The values that follow come from patent US8609651B2, “Pharmaceutical compositions of benzodiazepines and method of use thereof” (Jazz Pharmaceuticals, Inc., priority 2006, dated 2013).

Data set [1] is described as follows: Spray pattern of solvent matrices (plume area, spray angle, Dmax/Dmin). The class given is physicochemical. As to conditions: 100 μL from Pfeiffer unit-dose device, paper 3 cm above nozzle, 20-25° C. As for the experimental part: (§1) Fourteen representative solvent matrices used for clonazepam formulations were tested for spray pattern and compared with water. The solvent mixtures were made up, spiked with minute amounts of Coomassie Brilliant Blue Dye and 100 μL were subsequently filled into Pfeiffer unit-dose devices (Pfeiffer of America, Princeton, N.J.). To measure the spray pattern, the devices were actuated below a sheet of paper that was located 3 cm above the spray nozzle. All measurements were made at ambient room temperature (20-25° C.). The smallest (Dmin) and the largest (Dmax) diameter of the blue pattern formed on the sheet of paper were measured and the results used to calculate the Dmax/Dmin ratio, the area of the pattern and the average spray angle. The plume area at 3 cm was calculated using the equation for the area of an ellipse using the half of the two diameters as the ellipse radii. Viscosity of all formulations was measured using Brookfield DV-I viscometer (Brookfield Engineering Laboratories, Inc., Middleboro, Mass.).

Data set [2] can be described thus: Viscosity of solvent matrices (Brookfield DV-I viscometer). As to conditions: solvent matrix without drug. The class given is physicochemical. As for the experimental part: as §1
Data set [3] in a line: Effect of temperature on viscosity (Gilmont falling ball viscometer). The format is physicochemical. As for the experimental part: As weather may dictate substantially different conditions of use, the effect of temperature on viscosity was determined. A Gilmont falling ball viscometer was filled with diethylene glycol monoethyl ether and calibrated for several hours at each temperature. At −17° C., 8° C., 23° C. and 40° C. the measured viscosity was 6.6 cP, 5.4 cP, 3.8 cP and 3.1 cP, respectively.

The nature of data set [4]: Drug recovery, degradation and binding to nasal sheep mucosa. The format is in vitro ADME. As to conditions: sheep nasal mucosa (excised tissue) in buffer, 37° C., read-out: % recovery in the presence of nasal sheep mucosa. As for the experimental part:
(i) Drug recovery, degradation and binding to nasal sheep mucosa: The effect of drug recovery, degradation and binding to sheep nasal mucosa was determined. Briefly, a known surface area (approx. 1 cm^2) of sheep nasal mucosa was added into a glass vial containing a known concentration (10 μg/mL) of each drug prepared in the receiver fluid (10% ethanol in pH 6 buffer). The content of the vial was allowed to equilibrate at 37° C. over a period of 48 h. At 24 h intervals, a sample was removed and assayed via HPLC. The percentage of drug recovered was calculated using Equation 4: % drug recovered=(drug concentration at t=Y/drug concentration at t=Z)×100 (Equation 4)
where, Y=specific time point at 37° C. (in the presence of nasal sheep mucosa); and Z=specific time point at 37° C. (in the absence of nasal sheep mucosa).
In addition to the stability against heat degradation, the effect of drug binding or degradation in the presence of nasal sheep mucosa was also determined (Table 6).

For data set [5] the following is noted: in vivo; cited from earlier work.
Data set [6] can be described thus: Saturated solubility in receiver fluid systems (HPLC). As to conditions: 37 °C, thermodynamic from solid. As for the experimental part: Following the stability studies, a suitable receiver fluid was developed in order to ensure that sink conditions for tested drug were such that the drug release was limited by the solubility of the drug in the receiver fluid. […] Briefly, drug was saturated into different receiver fluid systems by adding excess drug and allowed to stir with a magnetic flea over a period of 2 h at 37° C. Each saturated solution was then filtered using a 0.2 μm syringe filter and the resultant solution was assayed via HPLC.
Calibration curves for clonazepam were constructed between 0.2 to 10 μg/mL with appropriate replicates to ensure repeatability and linearity.
Standards were prepared in receiver fluid (10% ethanol in buffer 6). […] The filtration at room temperature was performed as quickly as possible to minimize any drug precipitation as the temperature dropped from 37° C. during filtration.

Data set [7] is described as follows: Solubility of benzodiazepines in DEGEE (Transcutol) at 25° C. and −16° C. As to conditions: organic solvent or mixture, thermodynamic from solid. As for the experimental part:
The solubilities of several other benzodiazepines were measured in DEGEE (diethylene glycol monoethyl ether, transcutol) by the techniques of Example 1. Initially, 10 mg of the drug was loaded in the glass vial and 130-μL of DEGEE was added, and the samples were sonicated for 10 minutes. […] Samples were stored at −16° C. and 25° C. overnight, and centrifuged (5000 rpm, 2 minutes, −10° C. and 23° C. for the −16° C. and 25° C. samples, respectively). […] Clonazepam was measured by UV at 350 nm; all others at 300 nm.

Data set [8] can be described thus: Human pharmacokinetic study (oral, intravenous, intranasal cross-over). As to conditions: after 1 mg clonazepam. As for the experimental part:
The human pharmacokinetics, safety, and tolerability of the benzodiazepines compositions of the present invention formulated for intranasal delivery for therapeutic applications are evaluated using standard clinical procedures. Benzodiazepine compositions formulated for intranasal delivery are provided, for example, for application by the participants to intranasal mucosa.
A primary objective of initial studies in humans is to determine and compare pharmacokinetic profiles of three dosage forms of a benzodiazepine: oral, i.v., and intranasal, following single administration. An example of such a study in humans is a cross-over study performed in 12 healthy male volunteers. Plasma and urine level of clonazepam and 7-amino-clonazepam are determined, for example, using HPLC and UV detection. […] Further the initial studies in humans are used to determine local tolerability of intranasal formulation using questionnaire and the Visual Analog Scale (VAS). VAS is a validated instrument that has been used in numerous studies to quantify subjective […]. In addition, cognitive, sleepiness and mood effects are evaluated using questionnaires and scales (see, e.g., Example 10 below). Further, attention and vigilance may be evaluated using, for example, LEEDS Psychomotor Multiple Choice Reaction Time (MCRT) testing.
A human pharmacokinetic study was carried out as described in Example 8.
15 young, healthy male volunteers received a single dose of 1 mg clonazepam by oral, intravenous and intranasal routes in a three-period cross-over design.

Values after ≈ are worked out from the molar mass of the structure shown. Where two headings read alike, the source gives them in different places.

As for `O` [Water], the “Ratio Dmax/Dmin” value in data set [1] was found to be 1.10. For the same molecule, in data set [1] (average angle calculated from diameters), the Spray angle is listed as 73.1 °. The “Plume area at 3 cm” value in data set [1] (ellipse area from Dmax and Dmin) was 15.52 cm^2. In addition, the Avg. viscosity in data set [2] was found to be 1.0 cP.
Broadly, the viscosity is the internal friction of a fluid under shear. A low value points to a thin fluid. As for `CCOCCOCCO` [diethylene glycol monoethyl ether], the viscosity in data set [3] (8° C.) is reported as 5.4 cP; in data set [3] (23° C.), 3.8 cP; in data set [3] (40° C.) it was 3.1 cP; in data set [3] (−17° C.), 6.6 cP.
As for `CN1C(=O)CN=C(c2ccccc2)c2cc(Cl)ccc21` [Diazepam], the recovery at 24 h, 10 μg/mL in data set [4] (buffer pH 5 (10% ethanol)) was 97.6%; in data set [4] (buffer pH 6 (10% ethanol)), 98%; in data set [4] (buffer pH 7 (10% ethanol)) it was 97.6%. Moreover, the recovery at 48 h, 10 μg/mL in data set [4] (buffer pH 5 (10% ethanol)) stood at 95.6%; in data set [4] (buffer pH 6 (10% ethanol)) it was 125%; in data set [4] (buffer pH 7 (10% ethanol)) it was 94.7%. In addition, in data set [5], the “roughly equal dose (potency equivalence)” value is recorded as approximately 5.0 mg.
Broadly, the solubility is how much of the substance goes into solution per volume. The term half-life denotes how long it takes for the measured level to halve. Turning to `O=C1Nc2ccc(Cl)cc2C(c2ccccc2Cl)=NC1O` (stereo not shown) [Lorazepam], the solubility at 2 h stood at 78.5 µg/mL (≈ 244 µM) in data set [6] (pH 6, aqueous buffer, buffer pH 6, 37° C.); 309 µg/mL (≈ 962 µM) in data set [6] (pH 6, aqueous with cosolvent or surfactant or cyclodextrin, 20% ethanol in buffer pH6, 37° C.); 126 µg/mL (≈ 392 µM) in data set [6] (pH 6, aqueous with cosolvent or surfactant or cyclodextrin, receiver solution, 10% ethanol in buffer pH 6, 37° C.). For the same molecule, the recovery at 24 h, 10 μg/mL in data set [4] (buffer pH 5 (10% ethanol)) turned out to be 96.9%; in data set [4] (buffer pH 6 (10% ethanol)), 96.8%; in data set [4] (buffer pH 7 (10% ethanol)) it was 96.2%. Further, the recovery at 48 h, 10 μg/mL in data set [4] (buffer pH 5 (10% ethanol)) turned out to be 94.9%; in data set [4] (buffer pH 6 (10% ethanol)), 97%; in data set [4] (buffer pH 7 (10% ethanol)) it was 91.7%. For the same molecule, the results for the solubility in data set [7] (25 °C) and in data set [7] (-16 °C) were more than 110000 µg/mL and more than 130000 µg/mL, respectively. Moreover, in data set [5], the half-life was 8 to 24 h. In addition, the “roughly equal dose (potency equivalence)” value in data set [5] is reported as approximately 1.0 mg.
`Nc1ccc2c(c1)C(c1ccccc1Cl)=NCC(=O)N2` [7-Amino-clonazepam]: the figures for the “mean AUCt of metabolite” value in data set [8] (intranasal), in data set [8] (intravenous) and in data set [8] (oral) were 16.9 ng·h/mL, “approximately 30 ng·h/mL” and “approximately 30 ng·h/mL”, respectively. Also, the “mean Cmax of metabolite” value in data set [8] (intranasal) is given as 1.17 ng/mL; in data set [8] (intravenous) it was “approximately 2 ng/mL”; in data set [8] (oral), “approximately 2 ng/mL”.
